Data on eleven compounds can be found in patent US20080167332A1, “Novel Compounds 243” (priority 2006, published 2008).

Structures can show the parent of a compound that is named as a salt.

T2 sequence (Q12809 whole entry): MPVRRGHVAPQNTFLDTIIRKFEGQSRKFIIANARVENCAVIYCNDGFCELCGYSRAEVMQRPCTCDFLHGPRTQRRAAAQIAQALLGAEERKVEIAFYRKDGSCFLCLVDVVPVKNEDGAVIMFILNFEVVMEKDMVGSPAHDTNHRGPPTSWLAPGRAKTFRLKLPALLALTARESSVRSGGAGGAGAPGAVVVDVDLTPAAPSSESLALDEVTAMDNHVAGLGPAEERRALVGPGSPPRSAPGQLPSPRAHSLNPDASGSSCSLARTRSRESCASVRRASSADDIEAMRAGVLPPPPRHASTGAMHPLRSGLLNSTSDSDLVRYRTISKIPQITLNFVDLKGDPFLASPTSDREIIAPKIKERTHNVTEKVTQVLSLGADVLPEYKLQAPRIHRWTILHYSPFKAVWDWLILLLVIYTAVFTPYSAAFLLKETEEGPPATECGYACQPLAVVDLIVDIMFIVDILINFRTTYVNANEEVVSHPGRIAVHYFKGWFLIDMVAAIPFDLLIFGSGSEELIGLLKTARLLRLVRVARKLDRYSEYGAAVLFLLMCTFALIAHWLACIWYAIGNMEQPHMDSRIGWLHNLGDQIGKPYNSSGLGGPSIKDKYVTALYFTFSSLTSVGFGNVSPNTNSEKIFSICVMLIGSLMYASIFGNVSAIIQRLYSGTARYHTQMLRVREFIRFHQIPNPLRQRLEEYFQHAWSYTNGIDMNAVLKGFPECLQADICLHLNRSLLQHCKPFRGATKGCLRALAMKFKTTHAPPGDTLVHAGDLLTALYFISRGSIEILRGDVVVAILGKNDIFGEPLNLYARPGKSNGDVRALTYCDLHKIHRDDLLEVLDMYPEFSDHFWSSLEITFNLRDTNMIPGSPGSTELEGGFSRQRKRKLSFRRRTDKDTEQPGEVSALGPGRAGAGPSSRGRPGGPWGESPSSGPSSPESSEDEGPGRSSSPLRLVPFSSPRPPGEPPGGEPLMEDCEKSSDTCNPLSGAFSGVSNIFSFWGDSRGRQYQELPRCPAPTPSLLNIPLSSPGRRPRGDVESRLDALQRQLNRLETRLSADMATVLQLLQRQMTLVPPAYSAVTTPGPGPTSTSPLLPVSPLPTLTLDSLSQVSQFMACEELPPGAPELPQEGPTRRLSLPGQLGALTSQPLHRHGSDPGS

The first assay addresses T1, recombinant human CCR1 (Homo sapiens, UniProt P32246).
T1 construct: expressed in transfected cells; membranes
T1 sequence (P32246 1-355): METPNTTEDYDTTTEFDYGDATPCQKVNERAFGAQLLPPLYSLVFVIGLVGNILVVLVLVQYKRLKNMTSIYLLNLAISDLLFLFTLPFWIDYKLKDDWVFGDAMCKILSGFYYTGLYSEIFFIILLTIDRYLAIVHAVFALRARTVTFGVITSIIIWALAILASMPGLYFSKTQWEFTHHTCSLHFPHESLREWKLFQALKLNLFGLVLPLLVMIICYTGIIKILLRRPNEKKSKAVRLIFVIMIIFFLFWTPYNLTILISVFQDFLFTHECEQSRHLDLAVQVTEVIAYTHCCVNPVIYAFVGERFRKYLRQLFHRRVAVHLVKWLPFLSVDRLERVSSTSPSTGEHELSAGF
In words: Human CCR1 binding assay ([125I] MIP-1α displacement). The conditions noted are these: displacement of 33 pM [125I] MIP-1α, HEK-CCR1 membranes; read-out: Result from assay: IC50. The protocol: HEK293 cells, from ECACC, stably expressing recombinant human CCR1 (HEK-CCR1) were used to prepare cell membranes containing CCR1. The membranes were stored at −70° C. The concentration of membranes of each batch was adjusted to 10% specific binding of 33 pM [^125I] MIP-1α.
100 μL of HEK-CCR1 membranes diluted in assay buffer pH 7.4 ((137 mM NaCl (Merck, Cat No 1.06404), 5.7 mM Glucose (Sigma, Cat No G5400), 2.7 mM KCl (Sigma, Cat No P-9333), 0.36 mM NaH2PO4×H2O (Merck, Cat No 1.06346), 10 mM HEPES (Sigma, Cat No H3375), 0.1% (w/v) Gelatine (Sigma, Cat No G2625)) with the addition of 17500 units/L Bacitracin (Sigma, Cat No B1025) were added to each well of the 96 well filter plate (0.45 μm opaque Millipore cat no MHVB N4550). 12 μL of compound in assay buffer, containing 10% DMSO, was added to give final compound concentrations of 1×10^−5.5−I×10^−9.5 M. 12 μL cold human recombinant MIP-1α (270-LD-050, R&D Systems, Oxford, UK), 10 nM final concentration in assay buffer supplemented with 10% DMSO, was included in certain wells (without compound) as non-specific binding control (NSB). 12 μL assay buffer with 10% DMSO was added to certain wells (without compound) to detect maximal binding (B0).
12 μL [^125I] MIP-1α, diluted in assay buffer to a final concentration in the wells of 33 pM, was added to all wells. The plates with lid were then incubated for 1.5 h at room temperature. After incubation the wells were emptied by vacuum filtration (MultiScreen Resist Vacuum Manifold system, Millipore) and washed once with 200 μL assay buffer. After the wash, all wells received an addition of […] of scintillation fluid (OptiPhase “Supermix”, Wallac Oy, Turko, Finland). Bound [^125I] MIP-1α was measured using a Wallac Trilux 1450 MicroBeta counter. Window settings: Low 5-High 1020, 1-minute counting/well.
The following equation was used to calculate percent displacement.
Percent displacement=1−((cpm test−cpm NSB)/(cpm B0−cpm NSB)) where:
cpm test=average cpm in wells with membranes and compound and [^125I] MIP-1α; NSB=average cpm in the wells with membranes and MIP-1α and [^125I] MIP-1α (non-specific binding); B0=average cpm in wells with membranes and assay buffer and [^125I] MIP-1α (maximum binding).
The molar concentration of compound producing 50% displacement (IC50) was derived using the Excel-based program XLfit (version 2.0.9) to fit data to a 4-parameter logistics function.
For `CNC(=O)c1cc(Cl)c(OC(C)(C)C(=O)O)cc1OC[C@@H](O)CN1CCC2(CC1)Cc1cc(Cl)cc(C(C)(C)C)c1O2` [Example 22, 2-[5-{[(2S)-3-(7-tert-Butyl-5-chloro-1′H, 3H-spiro[1-benzofuran-2,4′-piperidin]-1′-yl)-2-hydroxypropyl]oxy}-2-chloro-4-(methylcarbamoyl)phenoxy]-2-methylpropanoic acid], the IC50 stood at 71.7 nM. On the same count and under the same terms, in the case of `CC(=O)Nc1ccc(OCC(=O)O)cc1OC[C@@H](O)CN1CCC2(CC1)Cc1cc(Cl)ccc1O2` [Example 2, (4-(acetylamino)-3-{[(2S)-3-(5-chloro-1′H,3H-spiro[1-benzofuran-2,4′-piperidin]-1′-yl)-2-hydroxypropyl]oxy}phenoxy)acetic acid] it was 10 nM; in that of `CNC(=O)c1cc(Cl)c(OC(C)(C)C(=O)O)cc1OC[C@@H](O)CN1CCC2(CC1)Cc1cc(Cl)ccc1O2` [Example 5, 2-[2-Chloro-5-{[(2S)-3-(5-chloro-1′H,3H-spiro[l-benzofuran-2,4′-piperidin]-1′-yl)-2-hydroxypropyl]oxy}-4-[(methylamino)carbonyl]-phenoxy}-2-methylpropanoic acid TFA], 1.06 nM. On the same count and under the same terms, the result for `O=C(O)COc1cc(OC[C@@H](O)CN2CCC3(CC2)Cc2cc(Cl)ccc2O3)c(C(=O)N2CC[C@H](O)C2)cc1Cl` [Example 20, (2-Chloro-5-{[(2S)-3-(5-chloro-1′H,3H-spiro[1-benzofuran-2,4′-piperidin]-1′-yl)-2-hydroxypropyl]oxy}-4-{[(3S)-3-hydroxypyrrolidin-1-yl]carbonyl}phenoxy)acetic acid] reads 2.02 nM. Same read-out and setting: the result for `CNC(=O)c1cc(Cl)c(OCC(=O)O)cc1OC[C@@H](O)CN1CCC2(CC1)Cc1cc(Cl)ccc1O2` [Example 4] reads 20.2 nM; that for `CN(C)C(=O)c1cc(Cl)c(OC(C)(C)C(=O)O)cc1OC[C@@H](O)CN1CCC2(CC1)Cc1cc(Cl)ccc1O2` [Example 19, 2-{2-Chloro-5-{[(2S)-3-(5-chloro-1′H, 3H-spiro[l-benzofuran-2,4′-piperidin]-1′-yl)-2-hydroxypropyl]oxy}-4-[(dimethylamino)carbonyl]-phenoxy}-2-methylpropanoic acid], 1.6 nM; that for `CNC(=O)c1cc(Cl)c(OC(C)(C)C(=O)O)cc1OC[C@H](O)CN1CCC2(CC1)Cc1cc(Cl)ccc1O2` [Example 6, 2-{2-Chloro-5-{[(2R)-3-(5-chloro-1′H,3H-spiro[1-benzofuran-2,4′-piperidin]-1′-yl)-2-hydroxypropyl]oxy}-4-[(methylamino)carbonyl]phenoxy}-2-methylpropanoic acid], 11 nM. `CN(C)C(=O)c1cc(Cl)c(OCC(=O)O)cc1OC[C@@H](O)CN1CCC2(CC1)Cc1cc(Cl)ccc1O2` [Example 18, {2-Chloro-5-{[(2S)-3-(5-chloro-1′H,3H-spirol[1-benzofuran-2,4′-piperidin]-1′-yl)-2-hydroxypropyl]oxy}-4-[(dimethylamino)carbonyl]phenoxy}acetic acid]: the IC50 was 11.4 nM. Still for that read-out and setting: in the case of `CNC(=O)c1cc(Cl)c(OC(C)(C)C(=O)O)cc1OCC(O)CN1CCC2(CC1)Cc1cc(Cl)ccc1O2` (racemic) [Example 21, 2-{2-Chloro-5-{3-(5-chloro-1′H 3H-spiro[1-benzofuran-2,4′-piperidin]-1′-yl)-2-hydroxypropyl]oxy}-4-dimethylamino)carbonyl]-phenoxy}-2-methyl-propanoic acid trifluoracetate] it was 2.42 nM.

The same assay, now with this note: displacement of 33 pM [125I] MIP-1α, HEK-CCR1 membranes; read-out: Result from assay: pIC50 (converted).
For `CC(=O)Nc1cc(Cl)c(OCC(=O)O)cc1OC[C@@H](O)CN1CCC2(CC1)Cc1cc(Cl)ccc1O2` [Example 1, (4-(acetylamino)-2-chloro-5-{[(2S)-3-(5-chloro-1′H,3H-spiro[1-benzofuran-2,4′-piperidin]-1′-yl)-2-hydroxypropyl]oxy}phenoxy)acetic acid], the IC50 was 0.562 nM.

Consider `CC(=O)Nc1cc(Cl)c(OCC(=O)O)cc1OC[C@@H](O)CN1CCC2(CC1)Cc1cc(F)ccc1O2` [Example 3, (4-(acetylamino)-2-chloro-5-{[(2S)-3-(5-fluoro-1′H,3H-spiro[1-benzofuran-2,4′-piperidin]-1′-yl)-2-hydroxypropyl]oxy}phenoxy)acetic acid, hydrochloride], for which the IC50 is 2.24 nM.

Another assay addresses T2, human ether-a-go-go-related-gene (hERG)-encoded potassium channel (Homo sapiens, UniProt Q12809).
T2 construct: expressed in transfected cells; host or cells: HEK 293 cell membranes
Description: hERG-encoded potassium channel binding assay. The conditions noted are these: HEK 293 cell membranes expressing the IKR channel, radioligand binding; read-out: hERG binding concentration. As for the experimental part: This assay, which is described in full detail in example 2, WO2005037052, determines the ability of a test compound to bind to the human ether-a-go-go-related-gene (hERG)-encoded potassium channel. The assay comprises the following steps: a) incubation of HEK 293 cell membranes expressing the IKR channel in the presence of radioligand 3,7-bis[2-(4-nitro[3,5-^3H]phenyl)ethyl]-3,7-diazabicyclo[3.3.1]nonane, in the presence or absence of a test compound; b) quantitation of specifically bound labelled compound in the presence or absence of a test compound; c) calculation of the inhibition of labelled compound binding by the test compound. Similar protocols to determine affinity for the human ether-a-go-go-related-gene (hERG)-encoded potassium channel have been described by Finlayson, K. et al. [Eur. J. Pharmacol. 2001, 412, 203 and Eur. J. Pharmacol. 2001, 430, 147].
As to `CC(=O)Nc1cc(Cl)c(OCC(=O)O)cc1OC[C@@H](O)CN1CCC2(CC1)Cc1cc(Cl)ccc1O2` [Example 1, (4-(acetylamino)-2-chloro-5-{[(2S)-3-(5-chloro-1′H,3H-spiro[1-benzofuran-2,4′-piperidin]-1′-yl)-2-hydroxypropyl]oxy}phenoxy)acetic acid], the IC50 was more than 30000 nM.
